One test has as its system HL-60. Briefly: Cytotoxicity against human HL60 cells by MTT assay. The test is classed as functional, cell-based.
In a further test the test system is A549. Description: Cytotoxicity against human A549 cells by SRB assay. The test is classed as functional, cell-based.

Turning to `CC(C)=CC(=O)C(O)/C(C)=C/CC[C@](C)(O)C1CCC(C)=CC1=O` (some centres not stated), the IC50 in the test on HL-60 and in the test with A549 was more than 10 µM each time.
For the molecule `C=C(C)[C@@]12OC3(C)O[C@@H]1[C@@H]1[C@H](O)[C@@](C)(O)[C@@H](O)[C@@]4(O)[C@@H](C[C@H](C)[C@@H]4OC(C)=O)[C@@]1(O3)[C@H](C)[C@@H]2OC(=O)CCc1ccccc1` (relative stereo), the IC50 in the test on HL-60 and in the test with A549 was more than 10 µM throughout.
As for `C=C(C)[C@@]1(OC(C)=O)[C@H](OC(C)=O)[C@@H]2[C@H](OC(C)=O)[C@@]3(C)O[C@@]4([C@@H]3OC(C)=O)[C@@H](OC(=O)c3ccccc3)[C@@H](C)C[C@H]4[C@@]2(O)[C@H](C)[C@@H]1OC(=O)c1ccccc1` [TRIGOHETERIN B], the IC50 in the test with HL-60 and in the test on A549 was more than 10 µM throughout.
As to `C=C(C)[C@@]12OC3(c4ccccc4)O[C@@H]1[C@@H]1[C@H]4O[C@@]4(C)[C@@H](O)[C@]4(O)C(=O)[C@@H](C)C[C@H]4[C@@]1(O3)[C@H](C)[C@@H]2OC(=O)c1ccccc1` (relative stereo), the IC50 is 1.8 µM in the test on HL-60 and 10 µM with A549.
Regarding `C=C(C)[C@@]1(OC(C)=O)[C@H](OC(C)=O)[C@@H]2[C@H](OC(C)=O)[C@@]3(C)O[C@@]4([C@@H]3OC(C)=O)[C@@H](OC(=O)c3ccccc3)[C@](C)(OC(C)=O)C[C@H]4[C@@]2(O)[C@H](C)[C@@H]1OC(=O)c1ccccc1` (relative stereo), the IC50 with HL-60 and in the test with A549 was more than 10 µM throughout.
As for `C=C(C)[C@@]12OC3(c4ccccc4)O[C@@H]1[C@@H]1[C@H](OC(C)=O)[C@@](C)(O)[C@@H](OC(=O)c4ccccc4)[C@@]4(O)[C@@H](C[C@H](C)[C@@H]4OC(C)=O)[C@@]1(O3)[C@H](C)[C@@H]2OC(C)=O` (relative stereo), the IC50 with HL-60 and in the test with A549 was more than 10 µM in each case.

The values above are taken from ChEMBL document CHEMBL1926684, “Constituents of Trigonostemon heterophyllus” (J Nat Prod, 2011).
